Experimental data taken from article PMC12069340 (Frontiers in Cellular and Infection Microbiology, 2025).
Structures can show the parent of a compound that is named as a salt. Where two headings read alike, the source gives them in different places.

What was measured:
[1] = tested on: A/PuertoRico/8/1934 (H1N1) virus; experiment: microbe, parasite or virus in culture; format: cell-based, influenza A virus
in vitro = conditions: human, Relative Viability (%)
[2] = Influenza A virus, H1N1, U-937, 48 h; read-out: NA Inhibition (%)
[3] = Influenza A virus, H1N1, U-937, 48 h, read-out: NA Inhibition (%)

Compound | inhibition at 20 µM [1, 2] [%] | viability at 20 µM (in vitro) [%] | inhibition at 20 µM [1, 3] [%] | NA Inhibition (%) ([1]; 20 µM)
NC[C@H](CC(=O)O)c1ccc(Cl)cc1 [(R)-baclofen] | 46.4 | 112 | – | –
CCCC(=O)Nc1ccc(OCC(O)CNC(C)C)c(C(C)=O)c1 (stereo not drawn) [Acebutolol HCl] | – | 106 | -13.9 | –
CC(=O)OCC[N+](C)(C)C [Acetylcholine Chloride] | -5.4 | 104 | – | –
O=C(O[C@H]1C[N+]2(CCCOc3ccccc3)CCC1CC2)C(O)(c1cccs1)c1cccs1 [Aclidinium Bromide] | 13.8 | 194 | – | –
COc1ccc2cccc(CCNC(C)=O)c2c1 [Agomelatine] | 18.4 | 89.1 | – | –
CN1CCC(=C2c3ccccc3CCn3c(C=O)cnc32)CC1 [Alcaftadine] | -0.9 | 188 | – | –
COc1cc2nc(N(C)CCCNC(=O)C3CCCO3)nc(N)c2cc1OC (stereo not drawn) [Alfuzosin HCl] | – | 110 | -12.3 | –
NC12CC3CC(CC(C3)C1)C2 [Amantadine HCl] | 69.2 | 110 | – | –
CCN1CCCC1CNC(=O)c1cc(S(=O)(=O)CC)c(N)cc1OC (stereo not drawn) [Amisulpride] | 6.2 | 89.7 | – | –
CN1CC2c3ccccc3Oc3ccc(Cl)cc3C2C1 (stereo not drawn) [Asenapine] | – | 87.1 | – | –
CCC1(c2cnc[nH]2)Cc2ccccc2C1 [Atipamezole] | – | 118 | 38.2 | –
CC(C)NCC(O)COc1ccc(CCOCC2CC2)cc1 (stereo not drawn) [Betaxolol] | – | 115 | 6.7 | –
CC(C[N+](C)(C)C)OC(N)=O (stereo not drawn) [Bethanechol chloride] | 2.2 | 103 | – | –
O=c1ccc2ccc(OCCCCN3CCN(c4cccc5sccc45)CC3)cc2[nH]1 [Brexpiprazole] | 54 | 97.2 | – | –
CN(C)CCC(c1ccc(Cl)cc1)c1ccccn1 (stereo not drawn) [Chlorpheniramine Maleate] | 1 | 102 | – | –
CN(C)CCCN1c2ccccc2Sc2ccc(Cl)cc21 [Chlorpromazine HCl] | 53.3 | 115 | – | –
COc1ccc(C[C@@H]2c3cc(OC)c(OC)cc3CC[N@+]2(C)CCC(=O)OCCCCCOC(=O)CC[N@@+]2(C)CCc3cc(OC)c(OC)cc3[C@H]2Cc2ccc(OC)c(OC)c2)cc1OC [Cisatracurium Besylate] | – | 106 | 27.9 | –
CN1CCC[C@@H]1CCO[C@](C)(c1ccccc1)c1ccc(Cl)cc1 [Clemastine Fumarate] | – | 88.5 | – | –
Clc1cccc(Cl)c1N=C1NCCN1 [Clonidine HCl] | – | 99.2 | -24.1 | –
CN(C)CC(c1ccc(O)cc1)C1(O)CCCCC1 (stereo not drawn) [Desvenlafaxine Succinate] | 11 | 98.8 | – | –

Compound | inhibition at 20 µM [1, 2] [%] | viability at 20 µM (in vitro) [%] | inhibition at 20 µM [1, 3] [%] | NA Inhibition (%) ([1]; 20 µM)
Cc1cccc(Cc2c[nH]cn2)c1C [Detomidine HCl] | – | 109 | 31.2 | –
Cc1cccc([C@H](C)c2cnc[nH]2)c1C [Dexmedetomidine HCl (Precedex), Dexmedetomidine HCl] | – | 120 | – | -18.5%
O=C1c2c(O)cc(O)cc2O[C@H](c2cc(O)c(O)c(O)c2)[C@H]1O [Dihydromyricetin] | 9.3 | 95.3 | – | –
C[N+]1(C)CCC(=C(c2ccccc2)c2ccccc2)CC1 [Diphemanil Methylsulfate] | -0.6 | 98.2 | – | –
OC(CCCN1CCCCC1)(c1ccccc1)c1ccccc1 [Diphenidol HCl] | 32.3 | 125 | – | –
CC(C)(C)c1ccc(C(=O)CCCN2CCC(OC(c3ccccc3)c3ccccc3)CC2)cc1 [Ebastine] | – | 105 | – | –
CC(C)C(=O)Oc1ccc(CO)cc1[C@H](CCN(C(C)C)C(C)C)c1ccccc1 [Fesoterodine Fumarate] | -27.7 | 114 | – | –
Cc1c(-c2ccccc2)oc2c(C(=O)OCCN3CCCCC3)cccc2c1=O [Flavoxate HCl] | 8.2 | 118 | – | –
C[C@@H]1C(=O)O[C@H]2C[C@@]34[C@H]5C[C@@H](C(C)(C)C)[C@]36[C@@H](OC(=O)[C@@H]6O)O[C@@]4(C(=O)O5)[C@]21O [Ginkgolide A] | 23.3 | 109 | – | –
N=C(N)NC(=O)Cc1c(Cl)cccc1Cl [Guanfacine Hydrochloride] | 11 | 102 | – | –
C[N+](C)(C)CCCCCC[N+](C)(C)C [Hexamethonium Bromide] | -10.2 | 104 | – | –
NCCc1c[nH]cn1 [Histamine Phosphate] | – | 98.9 | – | -2.9
CN1CCC(=C2c3ccccc3CC(=O)c3sccc32)CC1 [Ketotifen Fumarate] | -4.7 | 108 | – | –
CC(CCc1ccccc1)NCC(O)c1ccc(O)c(C(N)=O)c1 (stereo not drawn) [Labetalol HCl] | – | 101 | -17.2 | –
OC[C@@H](O)CN1CCN(c2ccccc2)CC1 [Levodropropizine] | 35.7 | 104 | – | –
CCN1CCC[C@H]1CNC(=O)c1cc(S(N)(=O)=O)ccc1OC [Levosulpiride] | 2.8 | 104 | – | –
CN(C)C(=O)C(CCN1CCC(O)(c2ccc(Cl)cc2)CC1)(c1ccccc1)c1ccccc1 [Loperamide HCl] | – | 116 | 23.2 | –
C[C@](N)(Cc1ccc(O)c(O)c1)C(=O)O [Methyldopa] | – | 104 | -13.4 | –
COCCc1ccc(OCC(O)CNC(C)C)cc1 (stereo not drawn) [Metoprolol Tartrate] | – | 106 | -24.2 | –
CN1CCN2c3ccccc3Cc3ccccc3C2C1 (stereo not drawn) [Mianserin HCl] | 26.3 | 91.9 | – | –

Compound | inhibition at 20 µM [1, 2] [%] | viability at 20 µM (in vitro) [%] | inhibition at 20 µM [1, 3] [%] | NA Inhibition (%) ([1]; 20 µM)
Nc1nc(CC(=O)Nc2ccc(CCNC[C@H](O)c3ccccc3)cc2)cs1 [Mirabegron] | – | 102 | -9.6 | –
CCOc1cc(N)c(Cl)cc1C(=O)NCC1CN(Cc2ccc(F)cc2)CCO1 (stereo not drawn) [Mosapride Citrate] | 32.4 | 112 | – | –
CN[C@H](CC(=O)O)C(=O)O [NMDA (N-Methyl-D-aspartic acid), N-Methyl-D-aspartic acid] | – | 113 | -15.5 | –
COc1ccccc1N1CCN(CC(O)COc2cccc3ccccc23)CC1 (stereo not drawn) [Naftopidil] | – | 102 | 13.4 | –
O=C1CC[C@@]2(O)[C@H]3Cc4ccc(O)c5c4[C@@]2(CCN3CC2CC2)[C@H]1O5 [Naltrexone HCl] | – | 107 | 10.1 | –
CNS(=O)(=O)CCc1ccc2[nH]cc(C3CCN(C)CC3)c2c1 [Naratriptan] | 5.8 | 102 | – | –
Cc1cccc(C)c1NC(=O)CN1CCCC1=O [Nefiracetam] | 6 | 105 | – | –
CN(C)C(=O)Oc1cccc([N+](C)(C)C)c1 [Neostigmine Bromide] | 2 | 114 | – | –
CCN(Cc1ccc(Cl)nc1)/C(=C/[N+](=O)[O-])NC [Nitenpyram] | -32.4 | 110 | – | –
CN(C)CC/C=C1/c2ccccc2COc2ccc(CC(=O)O)cc21 [Olopatadine HCl] | -11.6 | 122 | – | –
Cc1ccccc1C(OCCN(C)C)c1ccccc1 (stereo not drawn) [Orphenadrine Citrate] | – | 106 | – | –
CCN(CC)CC#CCOC(=O)C(O)(c1ccccc1)C1CCCCC1 (stereo not drawn) [Oxybutynin] | – | 104 | -3.6 | –
Cc1cc(C(C)(C)C)c(O)c(C)c1CC1=NCCN1 [Oxymetazoline hydrochloride] | – | 113 | -21 | –
Cc1nc2n(c(=O)c1CCN1CCC(c3noc4cc(F)ccc34)CC1)CCCC2O (stereo not drawn) [Paliperidone] | 9.3 | 110 | – | –
O=C1c2cccc3c2[C@H](CCC3)CN1[C@@H]1CN2CCC1CC2 [Palonosetron HCl] | -5.5 | 102 | – | –
CN[C@H]1CC[C@@H](c2ccc(Cl)c(Cl)c2)c2ccccc21 [Sertraline HCl] | – | 124 | – | –
COc1ccccc1N1CCN(CCN(C(=O)C2CCCCC2)c2ccccn2)CC1.O=C(O)/C=C\C(=O)O [WAY-100635 Maleate] | – | – | – | 9.1%
Cc1cccc(C)c1N=C1NCCCS1 [Xylazine HCl] | -20 | – | – | –
(-)-MK 801 Maleate | – | – | – | 26.1%
L-Adrenaline | – | – | – | -38.4
